Test results as given in patent publication US20140227173A1, “CANCER TREATMENT WITH GAMMA-SECRETASE INHIBITORS” (The Johns Hopkins University, priority 2006, published 2014).

Columns and labels:
Capan-1 = assay: Colony formation in soft agar (clonogenicity); type: cell-based, human
Text: Specificity of the RNA interference is confirmed by downregulation of Notch1 transcript levels with the specific siRA, but not with the scrambled controls. […] Bar graphs represent colony counts at two weeks, with mean and standard deviations calculated from triplicate experiments.
Bar graphs represent colony counts at two weeks, with mean and standard deviations calculated from triplicate experiments.
(Top) Experimental scheme illustrating pre-treatment of pancreatic cancer cell lines with GSI-18, prior to plating for soft agar assays and subcutaneous injection in athymic mice. Treatment for 24 hours with GSI-18 or vehicle is followed by recovery in full serum for a further 24 hours minus the drug. Equal numbers of viable cells from the control and treated groups are then plated for colony assays in soft agar, or injected in nude mice. Of note, during the in vitro or in vivo assays, no further drug is administered. […] The dosage required for significant inhibition of clonogenicity varies between 2 μM (Capan-1) to 5 μM (E3LZ10.7). Bar graphs represent colony counts at two weeks, with mean and standard deviations calculated from triplicate experiments. (Left) Pre-treatment with GSI-18 inhibits tumorigenicity of Panc-1 pancreatic cancer cell line in athymic mice. […] Error bars represent standard deviation of five mice per arm.

DAOY:NICD2 [1] = assay: Tumor engraftment in mice treated intraperitoneally after subcutaneous cell injection; type: in vivo, athymic nude mice; conditions: 0.5 mg i.p. for five consecutive days
Description: (§1) FIG. 8G is a graph plotting xenograft volume against number of days following injection of DAOY and DAOY:NIC2D cells in athymic nude mice, which were either treated with vehicle or 0.5 mg i.p. of GSI-18 for 5 consecutive days following subcutaneous tumor injection.
(§2) As a test of the requirement for ongoing Notch activity during tumor engraftment, animals were treated with GSI-18 after subcutaneously injecting DAOY and DAOY:NICD2 cells into their left and right flanks. A treatment group of four mice received intraperitoneal injections containing 0.5 mg GSI-18 in DMSO for five consecutive days, beginning on the day of xenograft initiation, while the control group was treated with vehicle alone.

DAOY [2] = assay: as above; type: in vivo, athymic nude mice; conditions: 0.5 mg i.p. in DMSO for five consecutive days from day of xenograft initiation, four mice
Description: as §1, §2

MB cultures = assay: Viable cell mass (CellTITER assay); type: cell-based
Description: (§3) The fact that cultures grew 2-fold or more during the same time period that side population was essentially ablated by Notch pathway blockade provides additional support for the notion that medulloblatoma CSC are especially vulnerable to Notch signaling inhibition.
(§4) The DAOY, PFSK, D283 and D425 Med cell lines were obtained from the American Type Culture Collection. The low-passage MB line MB2 was derived from a tumor resected at Johns Hopkins Hospital. For treatment studies, cell were plated and allowed to grow overnight in MEM (Invitrogen, Carlsbad, Calif.) containing 10% FBS, then media was replaced the next morning with low serum (0.5% FBS) MEM containing GSI dissolved in DMSO. RNA and protein extractions, and all cell-based assays, were performed 48 hours after drug application unless otherwise noted. All experiments with error bars were performed in triplicate and shown as mean values with standard error unless otherwise noted. Cell mass was measured using CellTITER assays according to the manufacturer's instructions (Promega, Madison, Wis.). Cell number and viability were assessed using the Guava PCA and Viacount reagent according to instructions (Guava Technologies, Heyward, Calif.). Soft agar assays were performed as previously described (15) and scored either manually after 4 weeks or using as automated reader after 6 weeks. The constitutively active Akt stable cell line was made by transfecting DAOY cells with myristolated Akt (pCB6-IMy-Akt-HA) or control (pCB6+) plasmids (kind gifts from Susan J. Baker) and selecting and maintaining clones in 0.8 mg/ml G418. Soft agar assays were performed as previously described, with colonies counted using an automated reader (15).

DAOY:NICD2 [3] = assay: Viable cell mass (CellTITER assay); type: cell-based; conditions: 0.4 μM and 2 μM
Description: as §3, §4

GBM neurospheres = assay: Proliferation (Ki67 index) in the Nestin positive population of GBM neurospheres; type: cell-based
Text: It has been shown that the Notch signaling pathway regulates normal stem cells in the Central Neural System (CNS), and that GBMs contain cancer stem cells (CSCs) with higher Notch activity (Cancer Research, 64:7011-21, 2004; Cancer Cell, 9:391-403, 2006). However, it has not been known if Notch pathway blockade could target CSCs in GBM. […] In the present study, we used GBM neurospheres to examine the effects of Notch pathway blockade in GBM. […] Furthermore, overexpression of an active form of Notch2 (NICD2) increases tumor growth in vitro.

PFSK = assay: Flow cytometric analysis of the cell cycle; type: cell-based; conditions: 2 μM
Text: (§5) Double immunolabeling, using antibodies specific for nestin and for Ki67, a marker of proliferating cells, was used to determine effects of Notch pathway blockade on the cell cycle. […] While adult neural stem cells are generally thought to be relatively quiescent, during embryonic growth of the brain the stem cell compartment is highly proliferative. The high rate of division observed in stem-like MB cells may reflect their similarity to those in fetal germinal epithelium.
(§6) Flow cytometric analysis of S-phase fraction and cell cycle kinetics was performed using a FACSCalibur (Becton Dickinson, San Jose, Calif.) with CELL Quest, version 3.3 software (15). CD133 studies were performed using the same instrument, with antibodies from Miltenyi (Miltenyi Biotec, Auburn, Calif.) according to the manufacturer's instructions. Cells expressing levels of CD133 higher than those seen in IgG controls were considered positive. For analyses of side population, cells (10^6/ml) were incubated with Hoechst 33342 (3 μM, Molecular Probes, Carlsbad, Calif.) for 90 minutes at 37° C. in DMEM containing 2% FBS. Prior to analysis, cells were washed and resuspended in 2 μg/ml PI (Sigma, St. Louis, Mo.). Cells were analyzed on a LSR flow cytometer equipped with 424/44 nm band pass and 670 nm long pass optical filters (Omega Optical, Brattleboro, Vt.). […]

DAOY [4] = assay: Flow cytometric analysis of the cell cycle; type: cell-based; conditions: 2 μM
Text: as §5, §6

SMILES: O=S(=O)(NC1C2CCC1Cc1ccccc1C2)c1cccs1 (stereo not drawn) [GSI-18, [11-endo]-N-(5,6,7,8,9,10-hexahydro-6,9-methanobenzo[α][8]annulen-11-yl)-thiophene-2-sulfonamide]
- colony formation following pre-treatment (Capan-1; 24 hours pre-treatment, 24 hours recovery minus drug, colony counts at two weeks): Significant inhibition of colony formation
- clonogenicity, colony formation in soft agar (Capan-1; colony counts at two weeks): significant inhibition of clonogencity
- dosage required for significant inhibition of clonogenicity (Capan-1; pre-treatment): 2 µM
- tumor development in treated animals (DAOY:NICD2 [1]): Tumors also developed
- engraftment in treated animals (DAOY [2]): failed to engraft in three of the four
- short-term increases in viable cell mass (MB cultures; 0 μM, 0.4 μM, and 2 μM): reduced in a dose-dependent fashion
- growth of cultures during Notch pathway blockade (MB cultures; same time period in which side population was ablated): ≥ 2 fold
- growth (viable cell mass) under NICD2 expression (DAOY:NICD2 [3]): rescued growth
- proliferation (Ki67 index) in the Nestin positive population (GBM neurospheres): decrease in proliferation (Ki67 index)
- G1/G0, S phase and G2/M cell fractions (PFSK): increased the G1/G0 cell fraction and decreased the S phase and G2/M fractions
- G1/G0, S phase and G2/M cell fractions (DAOY [4]): increased the G1/G0 cell fraction and decreased the S phase and G2/M fractions
